Here are results for five compounds from patent US20030130169A1, “Methods of treating drug-resistant bacterial infections” (priority 2001, published 2003).

Experiment [1] concerns RepA-LacZ (SLI-SLIII interaction of RepA mRNA), plasmid pMU1550. Nature of the experiment: RepA-LacZ reporter gene assay. It counts as cell-based. Conditions: E. coli JP3923 harboring pMU1550, various concentrations, OD600 ~0.6. As for the experimental part:
Small molecules were tested for their ability to imitate the function of RNA I by binding to the RepA mRNA and disrupting the Stem Loop I-Stem Loop III (SLI-SLIII) loop-loop interaction, thus mimicking plasmid incompatibility. Aminoglycosides and their derivatives were selected for testing because of their ability to tightly bind RNA from a variety of sources, particularly regions of distorted RNA secondary structure, such as RNA loops or bulges.
To assess their ability to disrupt the SLI-SLIII interaction in vivo, small molecules were assessed using a RepA-LacZ reporter gene assay. To conduct the assay, the gene encoding β-galactosidase was fused to the RepA gene, incorporated into commercially available plasmid pMU1550. E. coli JP3923 harboring plasmid pMU1550 was grown in minimal media (MM)/Tm([…]) in the presence of various concentrations of the small molecules under evaluation. After reaching the appropriate optical density (˜OD600=0.6), Miller units of b-galactosidase were quantitated as per the standard protocol (see Miller, J. H, Experiments in Molecular Genetics, 1972, p352-355, Cold Spring Harbor Laboratory, Cold Spring Harbor, N.Y.). Any perturbation causing lower RepA production leads to a lowering of the β-galactosidase units upon quantitation A positive control utilizing a plasmid (pMU662) that overexpresses RNAII (containing the SLI-SLIII stretch) gave the expected high b-galactosidase signal. Each experiment was performed on at least three separate occasions.
In a second control, erythromycin A, a general translation inhibitor, was tested using the reporter gene assay.
These experiments gave the expected results.
Background: A reporter such as luciferase makes a cellular process visible.

For experiment [2], the system named is plasmids differing in copy numbers, size and nature of replication. Conditions: cited from earlier work.
Another experiment has as its target SLI. The experiment in a line: Direct binding to fluorescein-labeled RNA (fluorescence titration). As for the experimental part: (§1) The direct binding of apramycin to SLI and SLIII was then assessed in vitro using fluorescently-labeled RNAs.
(§2) For these experiments, RNA oligonucleotides were obtained from Dharmacon Research (Lafayette, Colo.), and were deprotected according to the manufacturer's protocol. The sequence of FI-SLI is FI.C.G.CCA.UAA.GCG.ACA.GCU.UGU.GGC. The sequence of FI-SLIII is FI.UAU.UUU.UCC.UCG.AAC.UUG.GCG.GAA.CGC.AGA.AAA.AUA. All fluorescence measurements were performed on an ISS PC1 spectrofluorometer with slitwidths and lamp current optimized for sufficient signal counts at the given RNA-fluorescein concentration. Deprotected RNA oligonucleotides were made up to 1 mM in 50 mM Tris-HCl, pH 7.3, and folded by heating to 90° C. for 3 min, then slowly cooling to rt. To assess the binding of apramycin to the fluorescently-labeled RNAs, […] of the folded RNA was transferred to a 4×10×48 mm fluorescence cuvette (Starna Cells) and allowed to equilibrate to 37° C. in the spectrofluorometer's sample chamber for 15 minutes. Apramycin was added in […] portions from a stock solution, and a minimum of 5 minutes was allotted for equilibration. Three fluorescence spectra were acquired at each apramycin concentration. The spectra were taken with a 490 nm excitation wavelength and emission intensity was measured from 510-540 nm at an interval of one nanometer. At each point along the spectrum, an average of 3 data points was taken to give an averaged intensity at that integral wavelength. In processing the spectra, the point at 523 nm was chosen as a representative wavelength to monitor change in intensity over a range of apramycin concentrations. The 523 nm data points from each of the three averaged spectra were averaged at each apramycin concentration to give a composite average of nine measurements at 523 nm at each apramycin concentration. All intensity measurements are reported uncorrected for dilutions, as volume change over the course of the experiment is minimal.

A further experiment relates to SLIII. The description is as above. Conditions: various apramycin concentrations. As for the experimental part:
as §1, §2

The target in experiment [3] is SLI-SLIII loop-loop complex. Nature of the experiment: In vitro SLI-SLIII loop-loop disruption assay (displacement of fluorescein-labeled SLIII from bead-bound SLI). The class given is binding. Conditions: biotinylated SLI on streptavidin agarose bead, fluorescein-labeled SLIII displaced; read-out: Kd for disrupting the SLI-SLIII interaction. As for the experimental part: To further investigate the mechanism by which apramycin causes plasmid elimination, the SLI-SLIII loop-loop interaction was reconstituted in vitro. SLI was biotinylated and bound to a streptavidin coated agarose bead. Fluorescein-labeled SLIII was added to form the loop-loop complex. This complex was then incubated with varous concentrations of apramycin and the amount of SLIII displaced by apramycin was assessed by quantitation of the fluorescence in solution. These experiments indicate that apramycin is disrupting the SLI-SLIII interaction with a Kd of 1 μM.

Experiment [4] relates to IncB plasmid pMU2403 encoding β-lactamase. Nature of the experiment: Assessment of plasmid elimination (master/replica plating). The class given is cell-based, E. coli strain JP4821. Conditions: 25 μg/mL apramycin. As for the experimental part:
The anti-plasmid effect of apramycin, paromomycin I and kanamycin B was assessed. In general, plasmid-containing E. coli resistant to ampicillin were cultured using growth media containing subinhibitory (sublethal) amounts of each of these compounds. The bacteria were allowed to reproduce for a defined number of generations, after which the bacteria were plated out onto agar plates containing the tested small molecules. Replicas were then made onto plates containing the tested small molecules and the antibiotic, ampicillin. Colonies that appeared on the master plate, but not the replicas had been rendered sensitive to ampicillin
In particular, E. coli strain JP4821 containing the commercially available IncB plasmid pMU2403, which encodes for β-lactamase, was grown in MM in the presence of 25 μg/mL apramycin for a defined number of generations. Typically, samples of the bacteria were plated out onto LB/Apra^25 plates after 10-12 generations, and replica plates were then made onto LB/Apra^25/Amp^100 plates. Percentage of plasmid lost was calculated by counting the number of colonies successfully replicated and dividing by the total number of colonies on the master plate; the entire plasmid loss assay was performed on two separate occasions. On average, greater than 200 master plate colonies were used for each of these evaluations. Evaluations of paromomycin I and kanamycin B were performed in an analogous fashion, with paromomycin I at 15 mg/mL, and kanamycin B at 10 mg/mL.
To confirm that antibiotic sensitivity was due to plasmid loss, plasmid preparations were performed to isolate plasmid from the non-replicating colonies on the master plate, and from control colonies. No plasmids were isolated from the non-replicating colonies, while plasmid was successfully isolated from the control colonies that did replicate.

As usually defined, the Kd is the constant that tells how readily two partners part at equilibrium.

For `CC[C@H]1OC(=O)[C@H](C)[C@@H](O[C@H]2C[C@@](C)(OC)[C@@H](O)[C@H](C)O2)[C@H](C)[C@@H](O[C@@H]2O[C@H](C)C[C@H](N(C)C)[C@H]2O)[C@](C)(O)C[C@@H](C)C(=O)[C@H](C)[C@@H](O)[C@]1(C)O` [Erythromycin A, erythromycin A], in experiment [1], the “reporter gene signal (Miller units of β-galactosidase)” value (from here on “reporter gene signal”) is “no effect”.
`N[C@@H]1[C@H]2CN(c3nc4c(cc3F)c(=O)c(C(=O)O)cn4-c3ccc(F)cc3F)C[C@@H]12` [Trovafloxacin]: the plasmid curing effect entry in experiment [2] was “plasmid curing”.
`CN[C@@H]1[C@@H](O[C@H]2O[C@H](CO)[C@@H](N)[C@H](O)[C@H]2O)OC2C[C@@H](N)[C@@H](O[C@H]3[C@H](O)[C@@H](O)[C@H](N)C[C@@H]3N)OC2[C@@H]1O` (stereo partly drawn) [apramycin]: the Kd on SLI (50 mM Tris-HCl pH 7.3, 37° C., read-out: Kd of apramycin-SLI interaction) turned out to be 200 nM; in experiment [3], 1000 nM. Also, in the experiment with SLI (various apramycin concentrations), the “change in fluorescent signal of labeled SLI” value was “significant decrease”. The “change in fluorescence of labeled SLIII” value in the experiment with SLIII was “no significant change in fluorescence”. Moreover, the “reporter gene signal” value in experiment [1] is on record as “dose dependent decrease”. The plasmid elimination entry was “virtually complete elimination” in experiment [4] (after 220 generations) and “virtually complete elimination of plasmid” in experiment [4] (overall conclusion). Also, the “sensitization of bacteria to ampicillin” value in experiment [4] (replica plates LB/Apra25/Amp100) was “sensitizes the bacteria to ampicillin”.
As to `NC[C@H]1O[C@H](O[C@H]2[C@H](O)[C@@H](O[C@H]3O[C@H](CO)[C@@H](O)[C@H](N)[C@H]3O)[C@H](N)C[C@@H]2N)[C@H](N)[C@@H](O)[C@@H]1O` [kanamycin B], the “reporter gene signal” value in experiment [1] is given as “dose dependent decrease”.
On the same count and under the same terms, with `NC[C@@H]1O[C@H](O[C@H]2[C@@H](O)[C@H](O[C@@H]3[C@@H](O)[C@H](N)C[C@H](N)[C@H]3O[C@H]3O[C@H](CO)[C@@H](O)[C@H](O)[C@H]3N)O[C@@H]2CO)[C@H](N)[C@@H](O)[C@@H]1O` [paromomycin I] the entry was “dose dependent decrease”.
